Test results taken from patent publication US20090270342A1, “IMMUNOREGULATORY AGENT” (priority 2006, published 2009).

Tested on: Peyer's patch cells
Experiment: Production of IgA, IgG and cytokines by Peyer's patch cells of mice fed lactosucrose (Experiment 3)
Type: in vivo
Conditions: for IFN-γ produced by Peyer's patch cells / IL-4 produced by Peyer's patch cells / IL-6 produced by Peyer's patch cells / IgA produced by Peyer's patch cells / IgG produced by Peyer's patch cells / TGF-β produced by Peyer's patch cells / IL-10 produced by Peyer's patch cells: four weeks
Protocol: In order to investigate what type of immunopathologically-mediated tissue exerts the enhancing effect on gut immunity, the amounts of IgA, IgG, and various cytokines were measured. Similarly as in Experiment 1, female BALB/c mice (six weeks old) were preliminary reared for one week on “AIN-93G”, the same standard purified diet as used in Experiment 1. Successively, “LS-90P”, a saccharide composition comprising 91.8% (w/w), on a dry solid basis, of lactosucrose commercialized by ENSUIKO Sugar Refining Co., Ltd., Tokyo, Japan, was incorporated into the above purified diet, in which corn starch equal to the amount of the saccharide composition comprising lactosucrose had been removed, to give a lactosucrose content of 2% (w/w) or 5% (w/w), and five mice/group were allowed to ingest the resulting test diet freely. Mice, allowed to ingest “AIN-93G”, as the standard purified diet, were used as control. At four weeks after starting the administration of the test diet, Peyer's patch and intestinal lymph nodes were respectively removed from the mice and cut using a scissor. Then, the resultants were respectively treated in 0.2% (w/v) aqueous collagenase solution at 37° C. for 30 min, and filtrated using a cell strainer to obtain cell suspensions. Each cell suspension was centrifuged to collect cells and the resulting cells were suspended into a 45% (v/v) solution of “PERCOLL”, commercialized by GE Healthcare, to make into a cell suspension. Each resulting suspension was successively placed on a 75% (v/v) “PERCOLL” solution and centrifuged at 1,000×g for 10 min. Cells in a boundary phase between 45% (v/v) and 75% (v/v) “PERCOLL” solution were collected and suspended in RPMI1640 medium comprising 10% FCS and 10 mM HEPES, and the cell concentration was adjusted to 1×10^6 cells/ml. The resulting cell suspension was placed in a 24-well plate to give one ml/well each. Then, 2 μg/ml of Concanavaline A (Con A) as a stimulator to T-cell or 10 μg/ml of lipopolysaccharide (LPS) as a stimulator to B-cell and macrophage cell was admixed with the cell suspension, and then the cells were cultured at 37° C. for 48 hours using 5% (v/v) carbon dioxide gas. A culture supernatant was collected from each well, and the amounts of IgA, IgG, IFN-γ, interleukin-4 (IL-4), IL-6, interleukin-10 (IL-10), and TGF-β were measured by ELISA using an anti-mouse IgA antibody, anti-mouse IgG antibody, anti-mouse IFN-γ antibody (commercialized by Pepro Tech EC. Ltd.), anti-mouse IL-4 antibody (commercialized by R&D Systems), anti-mouse IL-6 antibody (commercialized by R&D Systems), anti-mouse IL-10 antibody (commercialized by R&D Systems), and anti-mouse TGF-β antibody (commercialized by Promega Co., Wisconsin, USA), and the average values of those from five mice were determined. The results for Peyer's patch cells and intestinal lymph node cells are respectively in Tables 3 and 4. The percentages in parentheses in the tables mean a relative value to the amount of IgA, IgG, IFN-γ, IL-4, IL-6, IL-10 or TGF-β produced by Peyer's patch cells or intestinal lymph node cells from the control mice.

[1] = Lactosucrose 2% (w/w) diet, Con A
[2] = Lactosucrose 2% (w/w) diet, LPS
[3] = Lactosucrose 5% (w/w) diet, Con A
[4] = Lactosucrose 5% (w/w) diet, LPS

## OC[C@H]1O[C@@H](O[C@H]2[C@H](O)[C@@H](O)[C@@H](O[C@]3(CO)O[C@H](CO)[C@@H](O)[C@@H]3O)O[C@@H]2CO)[C@H](O)[C@@H](O)[C@H]1O [Lactosucrose, β-D-galactosyl-(1,4)-α-D-glucosyl-(1,2)-β-D-fructoside]
[1]
  IFN-γ produced by Peyer's patch cells: 11 ± 5.0 ng/mL
  IL-4 produced by Peyer's patch cells: 22 ± 0.58 pg/mL
  IL-6 produced by Peyer's patch cells: 35 ± 14 pg/mL
  IgA produced by Peyer's patch cells: 1.9 ± 0.49 µg/mL
  IgG produced by Peyer's patch cells: 110 ± 28 ng/mL
  TGF-β produced by Peyer's patch cells: 0.40 ± 0.24 ng/mL
Lactosucrose 2% (w/w) diet, Con A, DL: Detection limit
  IL-10 produced by Peyer's patch cells: Below DL*
[2]
  IFN-γ produced by Peyer's patch cells: 1.2 ± 0.44 ng/mL
  IL-4 produced by Peyer's patch cells: 15 ± 1.6 pg/mL
  IL-6 produced by Peyer's patch cells: 250 ± 27 pg/mL
  IL-10 produced by Peyer's patch cells: 200 ± 57 pg/mL
  IgA produced by Peyer's patch cells: 1.9 ± 1.8 µg/mL
  IgG produced by Peyer's patch cells: 110 ± 90 ng/mL
  TGF-β produced by Peyer's patch cells: 1.3 ± 0.20 ng/mL
Lactosucrose 2% (w/w), Con A
  IFN-γ produced by Peyer's patch cells, relative value to control: (100%)
  IL-4 produced by Peyer's patch cells, relative value to control: (105%)
  IL-6 produced by Peyer's patch cells, relative value to control: (106%)
  IgA produced by Peyer's patch cells, relative value to control: (127%)
  IgG produced by Peyer's patch cells, relative value to control: (151%)
  TGF-β produced by Peyer's patch cells, relative value to control: (133%)
Lactosucrose 2% (w/w), LPS
  IFN-γ produced by Peyer's patch cells, relative value to control: (146%)
  IL-4 produced by Peyer's patch cells, relative value to control: (107%)
  IL-6 produced by Peyer's patch cells, relative value to control: (114%)
  IL-10 produced by Peyer's patch cells, relative value to control: (95%)
  IgA produced by Peyer's patch cells, relative value to control: (216%)
  IgG produced by Peyer's patch cells, relative value to control: (244%)
  TGF-β produced by Peyer's patch cells, relative value to control: (100%)
[3]
  IFN-γ produced by Peyer's patch cells: 21 ± 13 ng/mL
  IL-4 produced by Peyer's patch cells: 20 ± 0.74 pg/mL
  IL-6 produced by Peyer's patch cells: 84 ± 39 pg/mL
  IgA produced by Peyer's patch cells: 4.5 ± 2.6 µg/mL
  IgG produced by Peyer's patch cells: 270 ± 120 ng/mL
  TGF-β produced by Peyer's patch cells: 0.66 ± 0.13 ng/mL
Lactosucrose 5% (w/w) diet, Con A, DL: Detection limit
  IL-10 produced by Peyer's patch cells: Below DL*
[4]
  IFN-γ produced by Peyer's patch cells: 3.0 ± 2.1 ng/mL
  IL-4 produced by Peyer's patch cells: 14 ± 0.88 pg/mL
  IL-6 produced by Peyer's patch cells: 470 ± 250 pg/mL
  IL-10 produced by Peyer's patch cells: 160 ± 56 pg/mL
  IgA produced by Peyer's patch cells: 7.0 ± 4.0 µg/mL
  IgG produced by Peyer's patch cells: 370 ± 150 ng/mL
  TGF-β produced by Peyer's patch cells: 1.2 ± 0.090 ng/mL
Lactosucrose 5% (w/w), Con A
  IFN-γ produced by Peyer's patch cells, relative value to control: (191%)
  IL-4 produced by Peyer's patch cells, relative value to control: (95%)
  IL-6 produced by Peyer's patch cells, relative value to control: (255%)
  IgA produced by Peyer's patch cells, relative value to control: (300%)
  IgG produced by Peyer's patch cells, relative value to control: (370%)
  TGF-β produced by Peyer's patch cells, relative value to control: (220%)
Lactosucrose 5% (w/w), LPS
  IFN-γ produced by Peyer's patch cells, relative value to control: (366%)
  IL-4 produced by Peyer's patch cells, relative value to control: (100%)
  IL-6 produced by Peyer's patch cells, relative value to control: (214%)
  IL-10 produced by Peyer's patch cells, relative value to control: (76%)
  IgA produced by Peyer's patch cells, relative value to control: (795%)
  IgG produced by Peyer's patch cells, relative value to control: (822%)
  TGF-β produced by Peyer's patch cells, relative value to control: (92%)
